Consider one compound from ChEMBL document CHEMBL1687775, “Bioavailability and population pharmacokinetics of voriconazole in lung transplant recipients” (Antimicrob Agents Chemother, 2010).

Common to all, as to assay type: ADME, organism-based
Data set [1] is described as follows: Cmax in lung transplant recipient at 6 mg/kg, iv twice a day administered immediately post transplant as 2 hr infusion followed by 200 mg, po bid for 3 months by HPLC analysis. The arrangement: dose 6 mg/kg, route oral. To be noted: human, in vivo.
A short description of data set [2]: Tmax in lung transplant recipient at 6 mg/kg, iv twice a day administered immediately post transplant as 2 hr infusion followed by 200 mg, po bid for 3 months by HPLC analysis. The arrangement: dose 6 mg/kg, route oral. To be noted: human, in vivo.
Data set [3] can be described thus: Plasma concentration in lung transplant recipient at 6 mg/kg, iv twice a day administered immediately post transplant as 2 hr infusion followed by 200 mg, po bid for 3 months by HPLC analysis. Further details: dose 6 mg/kg, route oral. To be noted: human.
The nature of data set [4]: Cmax in lung transplant recipient at 6 mg/kg, iv twice a day administered immediately post transplant as 2 hr infusion. To be noted: human, in vivo. The arrangement: dose 6 mg/kg, route intravenous.

For orientation: Cmax means the highest concentration seen after dosing. What is called Tmax is the time from dosing to the highest level.

For `C[C@@H](c1ncncc1F)[C@](O)(Cn1cncn1)c1ccc(F)cc1F` [VORICONAZOLE], the Cmax in data set [1] was 5900 ng/mL; in data set [4], 3600 ng/mL. The Tmax in data set [2] came out at 1.9 h. For the same compound, the concentration at 2 h in data set [3] turned out to be 1000 ng/mL.
